# Measurements from ChEMBL document CHEMBL1154040, “Synthesis and evaluation of novel F-18 labeled fluoroarylvaline derivatives: potential PET imaging agents for tumor detection” (Bioorg Med Chem Lett, 2009).
# Test system: Heart
# Test: Biodistribution in S180 tumor-bearing KM mouse heart assessed per gram of tissue weight at 240 to 370 kBq, iv after 30 mins
# Assay type: ADME, organism-based
# Details: in vivo, 0.5 h
row,SMILES,Drug uptake [%ID]
1,COC(=O)[C@@H](NC(=O)c1ccc([N+](=O)[O-])cc1[18F])C(C)C,0.4

# Test system: Heart
# Test: Biodistribution in S180 tumor-bearing KM mouse heart assessed per gram of tissue weight at 240 to 370 kBq, iv after 5 mins
# Assay type: ADME, organism-based
# Details: in vivo
row,SMILES,Drug uptake [%ID]
1,COC(=O)[C@@H](NC(=O)c1ccc([N+](=O)[O-])cc1[18F])C(C)C,1.35

# Test system: Blood
# Test: Biodistribution in S180 tumor-bearing KM mouse blood assessed per gram of tissue weight at 240 to 370 kBq, iv after 120 mins
# Assay type: ADME, organism-based
# Details: in vivo, 2 h
row,SMILES,Drug uptake [%ID]
1,COC(=O)[C@@H](NC(=O)c1ccc([N+](=O)[O-])cc1[18F])C(C)C,0.19

# Test system: Blood
# Test: Biodistribution in S180 tumor-bearing KM mouse blood assessed per gram of tissue weight at 240 to 370 kBq, iv after 60 mins
# Assay type: ADME, organism-based
# Details: in vivo, 1 h
row,SMILES,Drug uptake [%ID]
1,COC(=O)[C@@H](NC(=O)c1ccc([N+](=O)[O-])cc1[18F])C(C)C,0.28

# Test system: Blood
# Test: Biodistribution in S180 tumor-bearing KM mouse blood assessed per gram of tissue weight at 240 to 370 kBq, iv after 30 mins
# Assay type: ADME, organism-based
# Details: in vivo, 0.5 h
row,SMILES,Drug uptake [%ID]
1,COC(=O)[C@@H](NC(=O)c1ccc([N+](=O)[O-])cc1[18F])C(C)C,0.68

# Test system: Blood
# Test: Biodistribution in S180 tumor-bearing KM mouse blood assessed per gram of tissue weight at 240 to 370 kBq, iv after 15 mins
# Assay type: ADME, organism-based
# Details: in vivo, 0.25 h
row,SMILES,Drug uptake [%ID]
1,COC(=O)[C@@H](NC(=O)c1ccc([N+](=O)[O-])cc1[18F])C(C)C,2.18

# Test system: Blood
# Test: Biodistribution in S180 tumor-bearing KM mouse blood assessed per gram of tissue weight at 240 to 370 kBq, iv after 5 mins
# Assay type: ADME, organism-based
# Details: in vivo
row,SMILES,Drug uptake [%ID]
1,COC(=O)[C@@H](NC(=O)c1ccc([N+](=O)[O-])cc1[18F])C(C)C,3.09

# Test system: Brain
# Test: Biodistribution in S180 tumor-bearing KM mouse brain assessed per gram of tissue at 240 to 370 kBq, iv after 30 mins
# Assay type: ADME, organism-based
# Details: in vivo, 0.5 h
row,SMILES,Drug uptake [%ID]
1,COC(=O)[C@@H](NC(=O)c1ccc([N+](=O)[O-])cc1[18F])C(C)C,0.28

# Test system: Brain
# Test: Biodistribution in S180 tumor-bearing KM mouse brain assessed per gram of tissue at 240 to 370 kBq, iv after 60 mins
# Assay type: ADME, organism-based
# Details: in vivo, 1 h
row,SMILES,Drug uptake [%ID]
1,COC(=O)[C@@H](NC(=O)c1ccc([N+](=O)[O-])cc1[18F])C(C)C,0.17

# Test system: Brain
# Test: Biodistribution in S180 tumor-bearing KM mouse brain assessed per gram of tissue at 240 to 370 kBq, iv after 120 mins
# Assay type: ADME, organism-based
# Details: in vivo, 2 h
row,SMILES,Drug uptake [%ID]
1,COC(=O)[C@@H](NC(=O)c1ccc([N+](=O)[O-])cc1[18F])C(C)C,0.12

# Test system: not listed separately
# Test: Biodistribution in S180 tumor present in KM mouse assessed per gram of tissue at 240 to 370 kBq, iv after 5 mins
# Assay type: ADME, organism-based, Neoplasm
# Details: in vivo
row,SMILES,Drug uptake [%ID]
1,COC(=O)[C@@H](NC(=O)c1ccc([N+](=O)[O-])cc1[18F])C(C)C,2.78

# Test system: not listed separately
# Test: Biodistribution in S180 tumor present in KM mouse assessed per gram of tissue at 240 to 370 kBq, iv after 30 mins
# Assay type: ADME, organism-based, Neoplasm
# Details: in vivo, 0.5 h
row,SMILES,Drug uptake [%ID]
1,COC(=O)[C@@H](NC(=O)c1ccc([N+](=O)[O-])cc1[18F])C(C)C,1.97

# Test system: not listed separately
# Test: Biodistribution in S180 tumor present in KM mouse assessed per gram of tissue at 240 to 370 kBq, iv after 120 mins
# Assay type: ADME, organism-based, Neoplasm
# Details: in vivo, 2 h
row,SMILES,Drug uptake [%ID]
1,COC(=O)[C@@H](NC(=O)c1ccc([N+](=O)[O-])cc1[18F])C(C)C,0.31

# Test system: not listed separately
# Test: Ratio of drug level in S180 tumor to blood in KM mouse at 240 to 370 kBq, iv after 15mins
# Assay type: ADME, organism-based
# Details: tumour, 0.25 h
row,SMILES,tumor/blood ratio
1,COC(=O)[C@@H](NC(=O)c1ccc([N+](=O)[O-])cc1[18F])C(C)C,0.94

# Test system: not listed separately
# Test: Ratio of drug level in S180 tumor to blood in KM mouse at 240 to 370 kBq, iv after 60 mins
# Assay type: ADME, organism-based
# Details: tumour, 1 h
row,SMILES,tumor/blood ratio
1,COC(=O)[C@@H](NC(=O)c1ccc([N+](=O)[O-])cc1[18F])C(C)C,3.44

# Test system: not listed separately
# Test: Ratio of drug level in S180 tumor to brain KM mouse at 240 to 370 kBq, iv after 5 mins
# Assay type: ADME, organism-based
# Details: in vivo
row,SMILES,tumor/brain ratio
1,COC(=O)[C@@H](NC(=O)c1ccc([N+](=O)[O-])cc1[18F])C(C)C,2.79

# Test system: not listed separately
# Test: Ratio of drug level in S180 tumor to brain KM mouse at 240 to 370 kBq, iv after 15 mins
# Assay type: ADME, organism-based
# Details: in vivo, 0.25 h
row,SMILES,tumor/brain ratio
1,COC(=O)[C@@H](NC(=O)c1ccc([N+](=O)[O-])cc1[18F])C(C)C,3.42

# Test system: not listed separately
# Test: Ratio of drug level in S180 tumor to brain KM mouse at 240 to 370 kBq, iv after 30 mins
# Assay type: ADME, organism-based
# Details: in vivo, 0.5 h
row,SMILES,tumor/brain ratio
1,COC(=O)[C@@H](NC(=O)c1ccc([N+](=O)[O-])cc1[18F])C(C)C,7.06

# Test system: not listed separately
# Test: Ratio of drug level in S180 tumor to brain KM mouse at 240 to 370 kBq, iv after 60 mins
# Assay type: ADME, organism-based
# Details: in vivo, 1 h
row,SMILES,tumor/brain ratio
1,COC(=O)[C@@H](NC(=O)c1ccc([N+](=O)[O-])cc1[18F])C(C)C,5.61

# Test system: not listed separately
# Test: Ratio of drug level in S180 tumor to brain KM mouse at 240 to 370 kBq, iv after 120 mins
# Assay type: ADME, organism-based
# Details: in vivo, 2 h
row,SMILES,tumor/brain ratio
1,COC(=O)[C@@H](NC(=O)c1ccc([N+](=O)[O-])cc1[18F])C(C)C,2.61

# Test system: not listed separately
# Test: Ratio of drug level in S180 tumor to muscleKM mouse at 240 to 370 kBq, iv after 5 mins
# Assay type: ADME, organism-based, KM
# Details: in vivo
row,SMILES,tumor/muscle ratio
1,COC(=O)[C@@H](NC(=O)c1ccc([N+](=O)[O-])cc1[18F])C(C)C,1.94

# Test system: not listed separately
# Test: Ratio of drug level in S180 tumor to muscleKM mouse at 240 to 370 kBq, iv after 30 mins
# Assay type: ADME, organism-based, KM
# Details: in vivo, 0.5 h
row,SMILES,tumor/muscle ratio
1,COC(=O)[C@@H](NC(=O)c1ccc([N+](=O)[O-])cc1[18F])C(C)C,2.41
